Tested on: human naïve CD4 T cells
Experiment: CXCL13 ELISA on supernatants of differentiated CD4 T cells
Format: cell-based
Conditions: plate bound anti-CD3 and ICOS-L, 5 days
Experimental: Unless differently specified, naïve CD4^+ T cells were enriched from PBMCs by magnetic bead negative selection with the Naïve CD4^+ T Cell Isolation Kit (Stem Cell Technologies). Purity (CD4^+CD45RA^+) was 90% or higher. Cells (7.5×10^4 cells/well) were activated by Dynabeads Human T-Activator CD3/CD28 (2 μl/well, Life Technologies) and cultured with recombinant human/mouse/rat activin A (50 ng/ml or 100 ng/ml), recombinant human IL-12 (5 ng/ml), recombinant human TGFβ (1 ng/ml), recombinant human IL-23 (10 ng/ml) or recombinant human IL-35 (10 ng/ml) in the presence of and recombinant human IL-7 (4 ng/ml) in AIM-V medium (Life Technologies). All cytokines were from R&D System and Peprotech. The 14 kDa mature human beta A chain of human activin A shares 100% amino acid sequence identity with bovine, feline, mouse, porcine, and rat beta A. Phenotype was quantified after 3 or 5 days, as specified in the main text of Figure legends. […] For experiments quantifying supernatant CXCL13 concentration, cells were activated by plate-bound anti-human CD3 (5 μg/ml, BD) and ICOS-L (5 μg/ml, recombinant human B7-H2, R&D). CXCL13 concentrations were determined via human CXCL13 DuoSet ELISA (R&D) on supernatants harvested after 5 days of in vitro culture. […]

“activin A: commercial recombinant cytokine, homodimer of the INHBA gene product (inhibin beta A)” was tested, and the “CXCL13 expression / secretion” value was “selectively induces CXCL13 expression”.
